Tested on: HT29 cells
Experiment: Apparent association time constant on flow cytometry
Assay type: binding, human
Protocol: We measured the apparent association time constant of the peptide to HT29 cells as an assessment of binding onset. HT29 cells were grown to […] confluence in 10 cm dishes, and detached with PBS-based cell dissociation buffer (Invitrogen). Cells (˜10^5) were incubated with 5 μM QRH*-Cy5.5 at 4° C. for various time intervals ranging from 0 to 20 min. The cells were centrifuged, washed with cold PBS, and fixed with 4% PFA. Flow cytometry analysis was performed as described above, and the median fluorescence intensity (y) was ratioed with that of HT29 cells without addition of peptide at different time points (t) using Flowjo software. The rate constant k was calculated by fitting the data to a first order kinetics model, y(t)=Imax[1−exp^(−kt)], where Imax=maximum value,^60 using Prism 5.0 software (GraphPad Inc).

QRHKPRE (SEQ ID NO: 1) with Cy5.5 fluorophore attached via a GGGSK linker (SEQ ID NO: 18) on the C-terminus [QRH*-Cy5.5]
binding time scale (onset): 2.46 min | apparent association time constant k (5 μM, 4° C., flow cytometry): 0.406 min⁻¹
